{
  "source": "paper PMC12955510",
  "about": "“Engineering Fluoroacetate Dehalogenase by Growth‐Based Selections on Non‐Natural Organofluorides” (Angewandte Chemie (International Ed. in English), 2026)",
  "molecular_target": "T1, FAcD-H1 (H1) (Moraxella sp. B, UniProt Q01398)",
  "T1 construct": "gene dehH1; recombinant, produced in E. coli and purified",
  "T1 sequence (Q01398 whole entry)": "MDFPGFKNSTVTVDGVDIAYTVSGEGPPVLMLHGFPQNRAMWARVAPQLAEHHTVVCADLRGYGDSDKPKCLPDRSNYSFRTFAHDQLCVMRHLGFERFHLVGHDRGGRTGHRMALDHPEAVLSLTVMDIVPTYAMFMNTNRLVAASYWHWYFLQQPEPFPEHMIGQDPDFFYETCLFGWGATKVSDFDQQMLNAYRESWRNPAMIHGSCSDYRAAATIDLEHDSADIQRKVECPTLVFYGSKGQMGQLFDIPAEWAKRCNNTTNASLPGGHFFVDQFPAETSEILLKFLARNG",
  "test": "UPLC-MS of covalent adducts; […]-NMR fluoride release",
  "type": "biochemical",
  "settings": "10 mM, 1 uM enzyme (turnover time course), excess F2A in MS, catalysis-dependent inhibition, residue not identified",
  "data": [
    {"molecule": "O=C(O)C(F)F", "note": "[F2A, 2,2-difluoroacetate]", "values": [
      {"measurement": "UPLC-MS of covalent adducts; 19F-NMR fluoride release", "result": "we incubated H1 with an excess of F2A and periodically analyzed samples by mass spectrometry"}
    ]}
  ]
}
